# Reference: patent US10961309B2, “Reducing systemic regulatory T cell levels or activity for treatment of disease and injury of the CNS” (Yeda Research and Development Co. Ltd, priority 2014, dated 2021)
# Tested on: GFP+ mo-MΦ
# Experiment: Homing of GFP+ mo-MΦ in AD-Tg/CX3CR1GFP/+ BM chimeras
# Assay type: in vivo, mouse
# Method: Tissue processing and immunohistochemistry were performed on paraffin embedded sectioned mouse (6 μm thick) and human (10 μm thick) brains. For human ICAM-1 staining, primary mouse anti-ICAM (1:20 Abcam; ab2213) antibody was used. Slides were incubated for 10 min with 3% H2O2, and a secondary biotin-conjugated anti-mouse antibody was used, followed by biotin/avidin amplification with Vectastain ABC kit (Vector Laboratories). Subsequently, 3,3′-diaminobenzidine (DAB substrate) (Zytomed kit) was applied; slides were dehydrated and mounted with xylene-based mounting solution. For tissue stainings, mice were transcardially perfused with PBS prior to tissue excision and fixation. CP tissues were isolated under a dissecting microscope (Stemi DV4; Zeiss) from the lateral, third, and fourth ventricles of the brain. […] Microscopic analysis, was performed using a fluorescence microscope (E800; Nikon) or laser-scanning confocal microscope (Carl Zeiss, Inc.). The fluorescence microscope was equipped with a digital camera (DXM 1200F; Nikon), and with either a 20× NA 0.50 or 40× NA 0.75 objective lens (Plan Fluor; Nikon). […] For quantification of staining intensity, total cell and background staining was measured using ImageJ software (NIH), and intensity of specific staining was calculated, as previously described (Burgess et al, 2010). […]
substance,measurement,setting,value
Glatiramer acetate [GA],homing of GFP+ mo-MΦ to the CP and adjacent ventricular spaces,weekly-GA vs vehicle-treated AD-Tg/CX3CR1GFP/+ controls,increased homing
same,GFP+ mo-MΦ in the brain parenchyma (immunohistochemistry),"weekly-GA, AD-Tg/CX3CR1GFP/+ chimeras",accumulation at sites of cerebral plaque formation
